# Laboratory results published in patent US20080113915A1, “SAPAP3 knockout mouse and clinical modeling associated with the SAPAP3 gene” (Duke University, priority 2006, published 2008).
# Columns and labels:
# [1] = test system: SAPAP3 knockout mice; assay: Videotaped grooming behaviour scoring after Fluoxetine treatment; type: in vivo, mouse; conditions: 5 mg/kg daily intraperitoneal, after six days, vs SAPAP3 knockout vehicle control group
# Protocol: To ascertain the source of the lesions quantitative, video studies of the knockout mice were performed. Groups of 10 wild type mice and 10 knockout mice were housed such that each mouse was isolated in a single cage. Following an acclimatization period to individual housing, each mouse was videotaped for 24 hours. Three, four-hour sections (10 AM-2 PM, 6 PM-10 PM, and 2 AM-6 AM) of each 24-hour period were watched and scored for a panel of behaviors: grooming, drinking/eating, sleeping, rearing, digging/shifting, or alert/active. When analyzed on either a “time spent” or “number of bouts engaged in” basis, it was obvious that SAPAP3 knockout mice groomed far more than their wild type counterparts in every time period examined (see FIGS. 3 and 4).
# Two cohorts of eight SAPAP3 knockout mice and two cohorts of eight wild type mice were housed in isolation and allowed to acclimate as in Example 2. One cohort of each genotype served as an experimental group and the other as a vehicle control group. The experimental groups were given a daily intraperitoneal injection of 5 mg/kg Fluoxetine for fourteen days. The control groups were given a daily vehicle injection under the same conditions.
# After six days, mice from each group were individually videotaped and their behaviors scored as in Example 2. […]
# [2] = test system: SAPAP3 knockout mice; assay: Light-dark box emergence test after Fluoxetine treatment; type: in vivo, mouse; conditions: after 6 days of treatment with 5 mg/kg, intraperitoneal
# [3] = test system: SAPAP3 knockout mice; assay: Semi-quantitative scoring of lesion severity (scale 0-4); type: in vivo, mouse
# Protocol: Four cohorts of eight SAPAP3 knockout mice and four cohorts of eight wild type mice were housed in isolation and allowed to acclimate as above. One cohort of each genotype served as a 5 mg/kg Fluoxetine experimental group, one as a 10 mg/kg Fluoxetine experimental group, one as a vehicle control group, and one as an uninjected control group.
# [4] = test system: SAPAP3 knockout animals; conditions: mouse, in vivo, 10 mg/kg
# [5] = share of SAPAP3 KO mice, Fluoxetine groups (5 and 10 mg/kg) combined, at two weeks
smiles,measurement,setting,value
CNCCC(Oc1ccc(C(F)(F)F)cc1)c1ccccc1 (stereo not shown) [Fluoxetine],bouts of grooming,[1],far fewer bouts of grooming
same,performance on the light-dark box emergence test (latency to leave dark chamber),[2],significantly improved
same,lesion severity (scale of 0-4),"[3]; SAPAP3 knockout mice, 5 and 10 mg/kg groups combined vs vehicle and uninjected groups combined, over a 2 week period",stabilized or improved lesions
same,Lesion severity: Improve,[3]; [5],28.6%
same,Lesion severity: No Change,[3]; [5],71.4%
same,Lesion severity: Worse,[3]; [5],0%
same,toxicity to SAPAP3 knockout animals relative to wild type controls,[4],progressively more toxic
